Reference: patent US6555356B2, “Methods for microbial regulation” (Unisearch Limited, priority 1995, dated 2003)
Values after ≈ are worked out from the molar mass of the structure shown. “Also recorded” adds a separate entry of the source.

What was measured:
Type in all cases: cell-based
[1] = system: strain R130; test: Marine isolate swarming, strain R130
Protocol: (§1) Serratia liquefaciens was grown in liquid LB medium at room temperature to an optical density of 0.3 at 450 nm and stable inoculated onto LB agar (0.7% agar) plates. Plates were incubated at 30° C. and observed regularly for swarming behaviour. The effect on swarming of furanone compounds was tested by adding (after sterilisation and cooling of the agar) compounds 1-13 (FIG. 3). in the concentration range of 5-100 μg/ml, to the plates.
(§2) Methods followed those described for Serratia liquefaciens (above). Inhibition of growth of these bacteria by furanones was assessed as above.

[2] = system: Erwinia carotovora; test: Erwinia carotovora (exoenzyme) assay on potato slices
Protocol: Inoculants from precultured E. carotovora were added to slices of potatoes. Degradation (softening and browning) of the potato was compared on slices with and without furanone compounds (3 and 4).

[3] = system: Vibrio harveyi; test: Vibrio harveyi bioluminescence assay; conditions: 100 μg/ml, visual inspection of agar plates
Protocol: (§3) Initial assays for both strains of Vibrio were streaked onto LB agar plates (with 2% NaCl) with and without furanone compounds 1-4 at 5-100 μg/ml. Bioluminescence of the plates was visually assessed after 24 hours of incubation at room temperature. In subsequent assays, both strains were grown in liquid culture in the presence of furanones. Bioluminescence was assayed via a luminometer. The effects of furanones on growth of both strains were assayed as above.

[4] = system: Vibrio fisheri; test: Vibrio fisheri bioluminescence assay; conditions: 100 μg/ml, visual inspection of agar plates
Protocol: as §3

[5] = system: Vibrio harveyi; test: Growth of Vibrio harveyi
Protocol: (§4) The effect on growth of Serratia liquefaciens by furanone compounds was also measured in liquid LB medium by comparing growth of cultures without the addition of compounds versus growth of cultures with added furanone compounds (100 μg/ml of compounds 1-13 (FIG. 3) in separate cultures). Growth was measured as optical density at 450 nm and followed over a 48 hr period.
as §3

[6] = system: strain V55; test: Marine isolate swarming, strain V55
Protocol: as §1, §2

[7] = system: Serratia liquefaciens; test: Serratia liquefaciens exoprotease assay (skim milk agar clearing zones); conditions: 100 μg/ml; for exoprotease activity of the wild type: Serratia liquefaciens wild type; for Effect on HSL phenotype: exoenzymes (exoprotease production): Serratia liquefaciens
Protocol: For assays of production of exoproteases by Serratia liquifaciens the bacteria were cultured as above and inoculated in liquid LB medium. The effects of furanone compounds were tested by adding compounds 3 and 4 (FIG. 3) at 100 μg/ml. Aliquots were withdrawn from the cultures, centrifuged and sterile filtered. Sixty microliters of supernatant were added to wells in skim milk agar plates (1.5% skim milk in M9 medium). Plates were incubated at room temperature and observed for clearing zones around the wells.

[8] = system: Pseudomonas aeruginosa; test: Pseudomonas aeruginosa (elastase) assay; conditions: 100 μg/ml in elastin agar
Protocol: (§5) Inoculants from precultures were streaked onto Peptone-Tryptic Soy Broth agar containing 0.3% elastin. Plates were incubated at 37° C. and observed for hydrolysis of the elastin. The effect of furanone compounds was assess by adding compounds 1-4 (100 μg/ml) to the plates and comparing zones of hydrolysis in plates with and without the compounds.

[9] = system: strain R12; test: Marine isolate swimming, strain R12
[10] = system: strain V55; test: Marine isolate swimming, strain V55
[11] = system: strain V54; test: Marine isolate swimming, strain V54
[12] = system: Erwinia carotovora; test: Growth of Erwinia carotovora
[13] = system: Serratia liquefaciens; test: Serratia liquefaciens swarming assay; conditions: 5-100 μg/ml in LB agar (0.7%) plates
Protocol: as §1

[14] = system: strain R86; test: Marine isolate swimming, strain R86
[15] = system: strain R130; test: Marine isolate growth in liquid media, strain R130
Protocol: as §4, §2

[16] = system: strain R12; test: Marine isolate swarming, strain R12
Protocol: as §1, §2

[17] = system: strain V21; test: Marine isolate growth in liquid media, strain V21
Protocol: as §4, §2

[18] = system: Vibrio fisheri; test: Growth of Vibrio fisheri
Protocol: as §4, §3

[19] = system: Helminthosporium sp.; test: Fungal growth inhibition zone assay, Helminthosporium sp.
Protocol: (§6) In addition to the tests described above, the effects of selected compounds of the general formula 2 on growth of bacteria, one yeast (Candida albicans) and one fungus (Helminthosporium sp.) were assessed. Bacteria were grown in liquid media in the presence of different concentrations of furanones and growth measured via changes in optical density (OD). Fungal assays were done by inoculating agar plates with spores. These plates contained different concentrations of furanone compounds in wells within the plates. Zones of inhibition around these wells were measured after 48 hours.

[20] = system: strain R86; test: Marine isolate swarming, strain R86
Protocol: as §1, §2

[21] = system: Candida albicans; test: Fungal growth inhibition zone assay, Candida albicans
Protocol: as §6

[22] = system: strain V55; test: Marine isolate growth in liquid media, strain V55
Protocol: as §4, §2

[23] = system: strain V21; test: Marine isolate swarming, strain V21
Protocol: as §1, §2

[24] = system: strain R130; test: Marine isolate swimming, strain R130
[25] = system: strain R12; test: Marine isolate growth in liquid media, strain R12
Protocol: as §4, §2

[26] = system: Serratia liquefaciens; test: Growth of Serratia liquefaciens in liquid LB medium; conditions: 100 μg/ml
Protocol: as §4

[27] = system: strain R86; test: Marine isolate growth in liquid media, strain R86
Protocol: as §4, §2

[28] = system: strain V54; test: Marine isolate swarming, strain V54
Protocol: as §1, §2

[29] = system: strain V54; test: Marine isolate growth in liquid media, strain V54
Protocol: as §4, §2

[30] = system: strain V21; test: Marine isolate swimming, strain V21
[31] = system: Pseudomonas aeruginosa; test: Growth of Pseudomonas aeruginosa on plates; conditions: 100 μg/ml
Protocol: as §5

[32] = system: Proteus mirabilis; test: Proteus mirabilis swarming assay; conditions: LB10 with 1.5% agar
[33] = system: Proteus mirabilis; test: Proteus mirabilis swimming; conditions: concentrations inhibitory to swarming, LB10 with 0.3% agar
[34] = system: Proteus mirabilis; test: Proteus mirabilis growth; conditions: concentrations inhibitory to swarming, 37 C
Protocol: as §2

[35] = system: Chromobacterium violencia; test: Growth of Chromobacterium violencia; conditions: 100 μg/ml
Protocol: as §4
A mutant of Chromobacterium violencia negative for the HSL auto inducer was used in the assay. The strain was pour plated in LB medium at high density and wells were punched after the media had set. Sterile, filtered supernatants from various HSL producing strains were added to the wells. Plates were incubated at 30° C. and observed for the formation of purple zones (due to […]) around the wells. The effects of furanone compounds 1 and 2 (FIG. 3) were assessed by running this assay on plates of LB medium containing furanone compounds at a concentration of 100 μg/ml. The effects of the compounds on growth of Chromobacterium were assessed as above.

Question: With `CCCC(OC(C)=O)C1=C(Br)C(=CBr)OC1=O` (stereo not shown) [Compound 3] as the compound, how does the “Minimum inhibitory concentration, Swarming” value [1] read?
Answer: 25 µg/mL (≈ 67.9 µM)

Question: What about the “Effect on HSL phenotype: exoenzymes” value [2] of the same compound?
Answer: no effect

Question: What about the “Effect on HSL phenotype: luminescence” value [3] of the same compound?
Answer: inhibit

Question: What about the “Effect on HSL phenotype: luminescence” value [4] of the same compound?
Answer: inhibit

Question: What about the “Effect on bacterial growth” value [5] of the same compound?
Answer: no effect

Question: And the “Minimum inhibitory concentration, Swarming” value [6]?
Answer: 5 µg/mL (≈ 13.6 µM)

Question: What about the “exoprotease activity of the wild type” value [7] of the same compound?
Answer: 3 and 4 decreases

Question: And the “Effect on HSL phenotype: exoenzymes (exoprotease production)” value [7]?
Answer: inhibit; also recorded: decrease/

Question: And the “Effect on HSL phenotype: elastase” value [8]?
Answer: inhibited; also recorded: delay/

Question: What about the “Minimum inhibitory concentration, Swimming” value [9] of the same compound?
Answer: 50 µg/mL (≈ 136 µM)

Question: And the “Minimum inhibitory concentration, Swimming” value [10]?
Answer: 5 µg/mL (≈ 13.6 µM)

Question: What about the “Minimum inhibitory concentration, Swimming” value [11] of the same compound?
Answer: 5 µg/mL (≈ 13.6 µM)

Question: And the “Effect on bacterial growth” value [12]?
Answer: no effect

Question: And the “Effect on HSL phenotype: swarming” value [13]?
Answer: inhibit

Question: And the “Minimum inhibitory concentration, Swimming” value [14]?
Answer: >50 µg/mL

Question: And the “Minimum inhibitory concentration, Growth” value [15]?
Answer: 25 µg/mL (≈ 67.9 µM)

Question: What about the “Minimum inhibitory concentration, Swarming” value [16] of the same compound?
Answer: 5 µg/mL (≈ 13.6 µM)

Question: What about the “Minimum inhibitory concentration, Growth” value [17] of the same compound?
Answer: 5 µg/mL (≈ 13.6 µM)

Question: What about the “Effect on bacterial growth” value [18] of the same compound?
Answer: no effect

Question: What about the “width of inhibition zone” value ([19]; amount added 0.1 μg) of the same compound?
Answer: 0 mm

Question: And the “width of inhibition zone” value ([19]; amount added 1 μg)?
Answer: 0 mm

Question: What about the “width of inhibition zone” value ([19]; amount added 10 μg) of the same compound?
Answer: 6-9 mm

Question: And the “width of inhibition zone” value ([19]; amount added 100 μg)?
Answer: 6-20 mm

Question: And the “Minimum inhibitory concentration, Swarming” value [20]?
Answer: 5 µg/mL (≈ 13.6 µM)

Question: And the “width of inhibition zone” value ([21]; amount added 0.1 μg)?
Answer: 0 mm

Question: And the “width of inhibition zone” value ([21]; amount added 1 μg)?
Answer: 0 mm

Question: What about the “width of inhibition zone” value ([21]; amount added 10 μg) of the same compound?
Answer: 1-2 mm

Question: And the “width of inhibition zone” value ([21]; amount added 100 μg)?
Answer: 2-3 mm

Question: What about the “Minimum inhibitory concentration, Growth” value [22] of the same compound?
Answer: 5 µg/mL (≈ 13.6 µM)

Question: And the “Minimum inhibitory concentration, Swarming” value [23]?
Answer: 5 µg/mL (≈ 13.6 µM)

Question: What about the “Minimum inhibitory concentration, Swimming” value [24] of the same compound?
Answer: >50 µg/mL

Question: And the “Minimum inhibitory concentration, Growth” value [25]?
Answer: >50 µg/mL

Question: And the “Effect on bacterial growth” value [26]?
Answer: no effect

Question: What about the “Minimum inhibitory concentration, Growth” value [27] of the same compound?
Answer: >50 µg/mL

Question: What about the “Minimum inhibitory concentration, Swarming” value [28] of the same compound?
Answer: 5 µg/mL (≈ 13.6 µM)

Question: And the “Minimum inhibitory concentration, Growth” value [29]?
Answer: 25 µg/mL (≈ 67.9 µM)

Question: What about the “Minimum inhibitory concentration, Swimming” value [30] of the same compound?
Answer: 25 µg/mL (≈ 67.9 µM)

Question: And the “Effect on bacterial growth” value [31]?
Answer: no effect

Question: `CCCC(O)C1=C(Br)C(=CBr)OC1=O` (stereo not shown) [Compound 4] was tested. Which “Minimum inhibitory concentration, Swarming” value [1] did it give?
Answer: 5 µg/mL (≈ 15.3 µM)

Question: What about the “Effect on HSL phenotype: exoenzymes” value [2] of the same compound?
Answer: decreases; also recorded: inhibit

Question: And the Effect on swarming [32]?
Answer: inhibited

Question: And the “Effect on bacterial growth” value [5]?
Answer: no effect

Question: And the “Minimum inhibitory concentration, Swarming” value [6]?
Answer: 5 µg/mL (≈ 15.3 µM)

Question: And the “exoprotease activity of the wild type” value [7]?
Answer: 3 and 4 decreases

Question: And the “Effect on HSL phenotype: exoenzymes (exoprotease production)” value [7]?
Answer: inhibit; also recorded: decrease/

Question: And the “Effect on HSL phenotype: elastase” value [8]?
Answer: inhibited; also recorded: delay/

Question: What about the “Minimum inhibitory concentration, Swimming” value [9] of the same compound?
Answer: 25 µg/mL (≈ 76.7 µM)

Question: What about the “Minimum inhibitory concentration, Swimming” value [10] of the same compound?
Answer: 5 µg/mL (≈ 15.3 µM)

Question: And the Effect on swimming [33]?
Answer: did not affect

Question: What about the “Minimum inhibitory concentration, Swimming” value [11] of the same compound?
Answer: 5 µg/mL (≈ 15.3 µM)

Question: What about the “Effect on bacterial growth” value [12] of the same compound?
Answer: without inhibiting; also recorded: no effect

Question: What about the “Effect on HSL phenotype: swarming” value [13] of the same compound?
Answer: inhibit

Question: What about the “Minimum inhibitory concentration, Swimming” value [14] of the same compound?
Answer: 25 µg/mL (≈ 76.7 µM)

Question: What about the Effect on growth [34] of the same compound?
Answer: did not affect

Question: What about the “Minimum inhibitory concentration, Growth” value [15] of the same compound?
Answer: 25 µg/mL (≈ 76.7 µM)

Question: What about the “Minimum inhibitory concentration, Swarming” value [16] of the same compound?
Answer: 5 µg/mL (≈ 15.3 µM)

Question: What about the “Minimum inhibitory concentration, Growth” value [17] of the same compound?
Answer: 5 µg/mL (≈ 15.3 µM)

Question: And the “Effect on bacterial growth” value [18]?
Answer: no effect

Question: What about the “Effect on bacterial growth” value [35] of the same compound?
Answer: inhibit

Question: What about the “Minimum inhibitory concentration, Swarming” value [20] of the same compound?
Answer: 5 µg/mL (≈ 15.3 µM)

Question: What about the “Minimum inhibitory concentration, Growth” value [22] of the same compound?
Answer: 25 µg/mL (≈ 76.7 µM)

Question: And the “Minimum inhibitory concentration, Swarming” value [23]?
Answer: 5 µg/mL (≈ 15.3 µM)

Question: And the “Minimum inhibitory concentration, Swimming” value [24]?
Answer: 25 µg/mL (≈ 76.7 µM)

Question: And the “Minimum inhibitory concentration, Growth” value [25]?
Answer: 25 µg/mL (≈ 76.7 µM)

Question: What about the “Effect on bacterial growth” value [26] of the same compound?
Answer: no effect

Question: And the “Minimum inhibitory concentration, Growth” value [27]?
Answer: 25 µg/mL (≈ 76.7 µM)

Question: What about the “Minimum inhibitory concentration, Swarming” value [28] of the same compound?
Answer: 5 µg/mL (≈ 15.3 µM)

Question: What about the “Minimum inhibitory concentration, Growth” value [29] of the same compound?
Answer: 25 µg/mL (≈ 76.7 µM)

Question: And the “Minimum inhibitory concentration, Swimming” value [30]?
Answer: 5 µg/mL (≈ 15.3 µM)

Question: What about the “Effect on bacterial growth” value [31] of the same compound?
Answer: no detectable effect
